The target of experiment [1] is T1, LpxC (Pseudomonas aeruginosa, UniProt P47205).
T1 sequence (P47205 1-303): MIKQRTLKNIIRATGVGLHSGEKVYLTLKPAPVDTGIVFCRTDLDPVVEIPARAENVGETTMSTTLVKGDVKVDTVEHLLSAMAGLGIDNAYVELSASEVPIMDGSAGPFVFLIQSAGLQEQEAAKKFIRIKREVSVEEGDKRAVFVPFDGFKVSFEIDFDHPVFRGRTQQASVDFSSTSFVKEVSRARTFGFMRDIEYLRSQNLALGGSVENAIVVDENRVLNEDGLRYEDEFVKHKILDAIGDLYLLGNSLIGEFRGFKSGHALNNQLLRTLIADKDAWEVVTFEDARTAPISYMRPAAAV
As to the kind of experiment: Inhibition of LpxC Enzyme. The format is biochemical. To be noted: LpxC enzyme is pseudomonas construct. The method, then:
[The source words this procedure for another target and reports this target under the same test.] A. Inhibition of LpxC Enzyme
Test compounds were dissolved in 100% DMSO @ 10 mM. Then a series of dilutions were done with 100% DMSO, these were the first intermediate dilutions. Individual 100% DMSO dilutions were diluted independently to another intermediate dilution using assay buffer (bringing the DMSO concentration to 5%). Finally, 10 μl of all these 5% intermediate dilutions were used directly in the 50 μl reaction, making the final DMSO testing concentration at 1%. The enzymatic reactions were conducted in duplicate at room temperature for 1 hour in a 50 μL mixture containing MMP-2 assay buffer, 1 μM Mca-PLGLDpaAR, 10 uL MPP-2 enzyme (1.8 ng) and 10 μL of a test compound. All the reactions were conducted using 10 μl MMP-2 assay buffer in place of enzyme, to detect just the background fluorescence from the compound. After enzymatic reactions, fluorescence intensity was measured at an excitation of 328 nm and an emission of 393 nm using a Tecan Infinite M1000™ microplate reader.

Experiment [2] has as its system Pseudomonas aeruginosa (ATCC 27853). As to the kind of experiment: Minimum Inhibitory Concentration (MIC), CLSI broth microdilution. The class given is cell-based. The note with it: ATCC27853, 35±1° C., 18±2 h, concentration which completely inhibited growth. The method, then: A. Minimum Inhibitory Concentration (MIC)
Minimum Inhibitory Concentrations (MICS) were determined for Escherichia coli (American Type Culture Collection (ATCC) 25922) and Pseudomonas aeruginosa (ATCC 27853) in accordance with the Clinical and Laboratory Standards Institute (CLSI). Serial, one-half dilutions of compounds were prepared in 96-well dilution blocks in cation-adjusted Mueller-Hinton Broth (MBH)+2% DMSO and transferred to 96-well assay plates in duplicate. Cell suspensions of E. coli and P. aeruginosa were prepared in MHB and added to each well at concentrations of approximately 1.2×10^6 and 3.3×10^6 colony-forming-units per milliliter (cfu/mL), respectively. The inoculated plates were incubated at 35±1° C. for 18±2 h. At the completion of incubation the wells of each plate were evaluated visually for the presence of growth. […] In addition to visual evaluation, optical densities were determined using a Tecan Infinite M200 microplate reader measuring absorbance at 600 nm.
A general note: Broth dilution looks for growth in wells or tubes with falling amounts of substance.

Structures can show the parent of a compound that is named as a salt.

`NNC(=O)c1cc(-c2ccc(C#Cc3ccc(NS(=O)(=O)C(F)(F)F)cc3)cc2)nc2ccncc12` [Example 185, 1,1,1-trifluoro-N-(4-((4-(4-(hydrazinecarbonyl)-1,6-naphthyridin-2-yl)phenyl)ethynyl)phenyl)methanesulfonamide] yielded an IC50 in experiment [1] of 5 nM. Compound `CS(=O)(=O)Nc1cc2nc(-c3ccc(C#Cc4ccc(C(=O)N5CCCC[C@H]5C(=O)O)cc4Cl)cc3)cc(C(=O)NN)c2cn1` [Example 309, (S)-1-(3-chloro-(4-((4-(4-(hydrazinecarbonyl)-7-(methylsulfonamido)-1,6-naphthyridin-2-yl)phenyl)ethynyl)benzoyl)piperidine-2-carboxylic acid hydrochloride] gave an IC50 in experiment [1] of 2 nM.

Consider `NNC(=O)c1cc(-c2ccc(C#Cc3ccc(C(=O)N4CCCC[C@H]4C(=O)O)cc3Cl)cc2)nc2ccncc12` [Example 202, (S)-1-(3-chloro-4-((4-(4-(hydrazinecarbonyl)-1,6-naphthyridin-2-yl)phenyl)ethynyl)benzoyl)piperidine-2-carboxylic acid hydrochloride], for which the MIC in experiment [2] turned out to be 128 µg/mL. This compound displayed a concentration for half-maximal inhibition (IC50) in experiment [1] of 2 nM.

In the case of `O=C(O)CCCOc1ccc(-c2ccc(-c3cc(N4C(=O)CNC4=S)c4cnccc4n3)cc2)cc1` [Example 83, 4-((4′-(4-(5-oxo-2-thioxoimidazolidin-1-yl)-1,6-naphthyridin-2-yl)-[1,1′-biphenyl]-4-yl)oxy)butanoic acid], the IC50 in experiment [1] is 4 nM.

In experiment [1], `CS(=O)(=O)Nc1cc2nc(-c3ccc(-c4ccc(-c5cc(CO)on5)cc4)cc3)cc(C(=O)NN)c2cn1` [Example 327, N-(4-(hydrazinecarbonyl)-2-(4′-(5-(hydroxymethyl)isoxazol-3-yl)-[1,1′-biphenyl]-4-yl)-1,6-naphthyridin-7-yl) methanesulfonamide hydrochloride] showed an IC50 of 5 nM.

Take `NNC(=O)c1cc(-c2ccc(-c3ccc(OCCNS(=O)(=O)C(F)(F)F)cc3)cc2)nc2ccncc12` [Example 101]: the 50% inhibitory concentration (IC50) in experiment [1] worked out at 6 nM.

As to `NNC(=O)c1cc(-c2ccc(-c3ccc(-c4cc(C(=O)N5CCCCC5C(=O)O)on4)cc3)cc2)nc2ccncc12` (racemic) [Example 115, 1-(3-(4′-(4-(hydrazinecarbonyl)-1,6-naphthyridin-2-yl)-[1,1′-biphenyl]-4-yl)isoxazole-5-carbonyl)piperidine-2-carboxylic acid], in experiment [1], the IC50 was 8 nM.

In experiment [1], `NNC(=O)c1cc(-c2ccc(-c3ccc(-c4cc(CO)on4)cc3)cc2)nc2cc(NS(=O)(=O)CC(=O)O)ncc12` [Example 328, 2-(N-(4-(hydrazinecarbonyl)-2-(4′-(5-(hydroxymethyl)isoxazol-3-yl)-[1,1′-biphenyl]-4-yl)-1,6-naphthyridin-7-yl)sulfamoyl)acetic acid hydrochloride] showed an IC50 of 2 nM.

Turning to `NNC(=O)c1cc(-c2ccc(-c3ccc(-c4cc(C(=O)N5CCC[C@@H]5C(=O)O)on4)cc3)cc2)nc2ccncc12` [Example 31, (R)-1-(3-(4′-(4-(hydrazinecarbonyl)-1,6-naphthyridin-2-yl)-[1,1′-biphenyl]-4-yl)isoxazole-5-carbonyl)pyrrolidine-2-carboxylic acid hydrochloride], the IC50 in experiment [1] amounted to 4 nM.

`CCC(C)C(NC(=O)c1ccc(C#Cc2ccc(-c3cc(C(=O)NN)c4cnccc4n3)cc2)cc1)C(=O)O` (racemic) [Example 172, 2-(4-((4-(4-(hydrazinecarbonyl)-1,6-naphthyridin-2-yl)phenyl)ethynyl)benzamido)-3-methylpentanoic acid] displayed an IC50 in experiment [1] of 18 nM. Compound `O=C(NO)[C@@H](Cc1ccc2ccccc2c1)NS(=O)(=O)c1ccc2ccccc2c1` [BB-78485] displayed an IC50 in experiment [1] of 20 nM. Take `CS(=O)(=O)NCc1cc(-c2ccc(-c3ccc(-c4cc(C(=O)NN)c5cnccc5n4)cc3)cc2)no1` [Example 35, N-((3-(4′-(4-(hydrazinecarbonyl)-1,6-naphthyridin-2-yl)-[1,1′-biphenyl]-4-yl)isoxazol-5-yl)methyl)methanesulfonamide]: in experiment [1], the IC50 is 2 nM.

By IC50 is commonly meant the point on the concentration scale where inhibition reaches its midpoint. The term MIC denotes the least concentration at which growth counts as inhibited.
